{"source": "patent US20170355736A1", "about": "“MORTALIN PEPTIDES AND ANTIBODIES AND USES THEREOF FOR INHIBITING MORTALIN ACTIVITY AND TREATING A DISEASE ASSOCIATED WITH A PATHOLOGICAL CELL” (Ramot at Tel-Aviv University Ltd., priority 2014, published 2017)", "key": {"Purified human C9": {"target": "Purified human C9 (Homo sapiens, UniProt P02748)", "sequence (P02748 22-559)": "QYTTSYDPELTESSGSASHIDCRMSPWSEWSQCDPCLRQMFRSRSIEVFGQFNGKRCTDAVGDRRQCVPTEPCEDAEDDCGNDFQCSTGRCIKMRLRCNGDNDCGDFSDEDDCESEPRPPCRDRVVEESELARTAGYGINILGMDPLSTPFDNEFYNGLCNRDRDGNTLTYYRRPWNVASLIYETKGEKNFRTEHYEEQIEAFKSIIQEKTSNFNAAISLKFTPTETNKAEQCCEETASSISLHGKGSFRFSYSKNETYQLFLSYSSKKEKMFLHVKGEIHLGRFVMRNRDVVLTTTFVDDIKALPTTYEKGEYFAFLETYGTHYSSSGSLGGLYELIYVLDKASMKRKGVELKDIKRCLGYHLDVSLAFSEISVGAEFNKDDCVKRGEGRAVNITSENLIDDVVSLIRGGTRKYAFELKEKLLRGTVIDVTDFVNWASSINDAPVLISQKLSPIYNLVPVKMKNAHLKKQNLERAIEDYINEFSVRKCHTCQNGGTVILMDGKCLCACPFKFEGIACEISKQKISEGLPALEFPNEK", "assay": "Zinc-induced C9 polymerization, SDS-PAGE/Coomassie", "format": "biochemical", "method": "FIGS. 2A-B are Coomassie blue stained gels depicting inhibition of C9 polymerization by mortalin or the isolated mortalin peptides. Purified human C9 ([…]) was mixed for 15 minutes at 37° C. with BSA ([…]) as control (lanes marked as “BSA”), mortalin ([…], lanes marked as “mot”) or mortalin peptides (1 mM, lanes marked by “p” and the indicated peptide numbers) that were freshly dissolved in Tris buffered saline (TBS); and then incubated with 42 μM ZnCl2 for 2 hours at 37° C. The first lane on the left, marked “C9” refers to a positive control of the purified C9 without BSA, without mortalin or without the isolated peptides. Samples were subjected to SDS-PAGE on a 2.5-14% acrylamide gradient gel and stained with Coomassie blue. The bands of poly C9 appearing on the top part of the gel are indicated. FIGS. 2A and 2B represent two independent experiments.\nThe effect of the peptides on C9 polymerization—Formation of the complement membrane pores requires that multiple C9 molecules undergo polymerization and generate the doughnut-shape transmembrane complex; thus the effect of the peptides on C9 polymerization was tested. C9 polymerization occurs during C5b-9 generation [Podack and Tschopp, Proc Natl Acad Sci USA. (1982) 79(2):574-8]. […] C9 was mixed with peptides and 42 μM ZnCl2 for 2 hours and the samples were analyzed by SDS-PAGE, on a 2.5-14% acrylamide gradient gel. […]"}, "K562 cells [1]": {"tested_on": "K562 cells", "assay": "Complement-dependent cytotoxicity (CDC), antibody + normal human serum, PI inclusion/FACS", "format": "cell-based", "settings": "summary of in vitro effects", "method": "K562 cells were either pre-incubated with peptides (60 minutes at 37° C.) and then treated with Rabbit anti-K562 polyclonal antiserum (Ab) and normal human serum (as a source for complement) or treated with Ab and complement in presence of the peptide [Ziporen et al. J. Immunol. (2009) 182: 515-21]. Cell death was measured by PI (Propidium Iodide) inclusion and FACS analysis, after 1 hour treatment at 37° C. The effect of the peptides on complement-dependent cytotoxicity—The next objective was to determine which of the peptides could alter cell death and sensitize cancer cells to complement-dependent cytotoxicity (CDC). Thus, cells were incubated with the peptides prior to antibody and complement treatment (denoted herein as pre-incubation) or treated concomitantly with antibody and complement in the presence of the peptides (denoted herein as without pre-incubation). It should be noted that in cases where the peptide was incubated with the cells prior to addition of the antibody and complement (serum) (noted as “preincubation”) cell cytotoxicity begins as complement independent, and then, upon addition of the antibody and complement can continue as complement dependent. […]"}, "[2]": {"tested_on": "leukemia and lymphoma cell lines", "assay": "Direct cell killing / direct toxicity (complement independent), overall statement", "format": "cell-based", "parameters": "key: ↑: enhance; ↓: inhibit; ↑↓: effect depends on dose/time; —: no effect", "settings": "summary of in vitro effects; complement independent cytotoxicity; cell lines and primary B-CLL cells", "method": "The toxic effect of these peptides was tested on 3 leukemia/lymphoma cell lines Raji (FIG. 5), Ramos (FIG. 6) and Z-138 (FIG. 7). The cells were treated for 24 hours with the peptides and cell death was determined by propidium iodide labeling and analysis by flow cytometry.\nIn summary, Table 6 below illustrates the relative effects of some of the peptides on mortalin-C9 binding, C9 polymerization, complement-dependent cytotoxicity and complement independent cytotoxicity (direct toxicity)."}, "Raji cells": {"tested_on": "Raji cells", "assay": "Complement independent cytotoxicity, Annexin V/PI, FACS", "format": "cell-based, human", "settings": "stand-alone treatment, 0.8 mM, 24 hours", "description": "Then, the cells were labeled with Annexin/PI and analyzed by Flow Cytometry. FIG. 3A—a histogram depicting the percent of dead cells (Annexin and PI positive) as calculated. FIGS. 3B-D—representative images of cells in control (FIG. 3B) and peptide-treated groups [FIG. 3C (treated with peptide no. 14) and FIG. 3D (treated with peptide no. 16)] stained by DAPI and observed under a fluorescence microscope.\n(§1) The complement independent cytotoxic effect of the peptides—To address the toxic effect of the peptides as single agents, the present inventor tested the effect of the peptides no. 14 and 16 on K562 and Raji human cancer cells. The cells were incubated with the peptides for 24-48 hours in growth medium and then tested for apoptosis using an Annexin V/PI (Propidium Iodide) staining kit followed by FACS analysis."}, "K562 cells [3]": {"tested_on": "K562 cells", "assay": "Complement independent cytotoxicity, Annexin V/PI, FACS", "format": "cell-based, human", "settings": "stand-alone treatment, 0.8 mM, 24 hours", "method": "Raji or K562 cells were treated without (C) or with 2 mM peptides for 48 hours in their culture medium. Then, the cells were labeled with Annexin/PI and analyzed by Flow Cytometry. FIG. 3A—a histogram depicting the percent of dead cells (Annexin and PI positive) as calculated. FIGS. 3B-D—representative images of cells in control (FIG. 3B) and peptide-treated groups [FIG. 3C (treated with peptide no. 14) and FIG. 3D (treated with peptide no. 16)] stained by DAPI and observed under a fluorescence microscope.\nas §1"}, "mortalin-C9 binding": {"target": "mortalin-C9 binding (Homo sapiens, UniProt P02748)", "sequence (P02748 22-559)": "as above", "assay": "ELISA of mortalin binding to C9 with or without mortalin peptides", "parameters": "key: ↑: enhance; ↓: inhibit; ↑↓: effect depends on dose/time; —: no effect", "settings": "summary of in vitro effects", "method": "FIG. 1 is a histogram depicting results of ELISA (enzyme-linked immunosorbent assay) which detected binding of mortalin to C9 in the presence or absence of various mortalin peptides. Purified human C9 (0.057 μM) was attached overnight at 4° C. to wells of a 96-wells plate and then the excess of C9 was washed. Following, His-tagged recombinant mortalin (0.007 μM) was added to the wells for 1 hour at 37° C. with or without the designated peptides (each at a concentration of 170 μM), which were dissolved in 1% BSA (bovine serum albumin). Following incubation with the mortalin and peptides the wells were washed, treated for 1 hour at 37° C. with mouse anti-His antibody (diluted 1:1000) followed by 1 hour incubation at room temperature with peroxidase-labeled goat anti-mouse IgG (diluted 1:10,000), developed with O-phenylenediamine (OPD) and analyzed by an ELISA reader at 492 nm. […]\nMethods of detecting the binding between mortalin and C9 are known in the art [Pilzer et al. Int Immunol (2005) 17:1239-1248; Pilzer et al. Int J Cancer (2010). […] After incubation of the C9 and mortalin, the excess of the labeled mortalin and of the peptide is removed by washing the plate, and the amount of labeled mortalin which is bound to the surface-attached C9 protein is determined using an anti-His antibody (e.g., a mouse anti-His antibody). […]"}, "[4]": {"tested_on": "primary B-CLL leukemia cells", "assay": "Direct cell killing of primary leukemia cell preparations, PI flow cytometry", "format": "cell-based, human", "settings": "peptides with TAT sequence at C-terminal, 20 hours, 50 µM concentration", "method": "FIG. 8 is a histogram depicting cell death of B-CLL leukemia cells by mortalin peptides. […] Mortalin peptides numbers 2, 7, 8, 10, 14 and 16 and a scrambled control peptide (PC) were tested. […] Following, the cells were labeled with PI and analyzed by Flow Cytometry. Percent of dead cells (PI positive) was calculated.\nFIG. 9 is a histogram depicting cell death of B-CLL leukemia cells by mortalin peptides. […] Mortalin peptides numbers 2, 7, 8, 10, 14 and 16 and a scrambled control peptide (PC) were tested. […] Following, the cells were labeled with PI and analyzed by Flow Cytometry. Percent of dead cells (PI positive) was calculated.\nFIG. 10 is a histogram depicting cell death of B-CLL leukemia cells by mortalin peptides. […] Following, the cells were labeled with PI and analyzed by Flow Cytometry. Percent of dead cells (PI positive) was calculated.\nFIG. 11 is a histogram depicting cell death of B-CLL leukemia cells and normal mononuclear cells by mortalin peptides. […] Following, the cells were labeled with PI and analyzed by Flow Cytometry. Percent of dead cells (PI positive) was calculated.\nBlood drawing from B-CLL patients was approved by the Helsinki Committee of Rabin Medical Center, Petach Tikvah, Israel. […] The cells were treated for 20 hours with the peptides at […] concentration and cell death was determined by propidium iodide labeling and analysis by flow cytometry. […]"}}}
{"compound": "Mortalin: human mortalin protein, member of the HSP70 family (SEQ ID NO: 24), recombinant", "values": [{"measurement": "effect on C9 polymerization", "setting": "Purified human C9; peptides 1 mM, mortalin 1.4 mM, 42 μM ZnCl2, 2 hours, 37° C., poly C9 band on gel", "value": "completely inhibited C9 polymerization"}, {"measurement": "C9 polymerization", "setting": "Purified human C9; summary of in vitro effects", "value": "↓↓↓"}, {"measurement": "Effect on CDC", "setting": "K562 cells [1]", "value": "↓↓↓"}, {"measurement": "Direct toxicity", "setting": "[2]", "value": "—"}]}
{"compound": "MVKNAEKYAEEDRYMGRKKRRQRRR (synthetic peptide (TAT modified peptide 14)) [TAT-peptide no: 14]", "values": [{"measurement": "capacity to induce apoptosis, TAT-modified versus native peptide no: 14", "setting": "Raji cells", "value": "markedly enhanced the capacity of peptide no: 14 to induce apoptosis"}, {"measurement": "capacity to induce apoptosis, TAT-modified versus native peptide no: 14", "setting": "K562 cells [3]", "value": "markedly enhanced the capacity of peptide no: 14 to induce apoptosis"}]}
{"compound": "CSCC[C@H](NC(=O)[C@H](Cc1ccc(O)cc1)NC(=O)[C@H](CC(C)C)NC(=O)[C@H](CCC(=O)O)NC(=O)[C@H](CO)NC(=O)[C@H](CCCCN)NC(=O)[C@H](C)NC(=O)[C@H](CCCCN)NC(=O)[C@H](CCC(=O)O)NC(=O)[C@H](C)NC(=O)[C@H](C)NC(=O)[C@H](CCC(=O)O)NC(=O)[C@H](CCCNC(=N)N)NC(=O)[C@@H](NC(=O)[C@H](CCCNC(=N)N)NC(=O)[C@H](CCC(N)=O)NC(=O)[C@H](CC(C)C)NC(=O)[C@H](C)NC(=O)[C@H](CCSC)NC(=O)[C@@H](N)CC(N)=O)C(C)C)C(=O)NCC(=O)N[C@@H](CCCNC(=N)N)C(=O)N[C@@H](CCCCN)C(=O)N[C@@H](CCCCN)C(=O)N[C@@H](CCCNC(=N)N)C(=O)N[C@@H](CCCNC(=N)N)C(=O)N[C@@H](CCC(N)=O)C(=O)N[C@@H](CCCNC(=N)N)C(=O)N[C@@H](CCCNC(=N)N)C(=O)N[C@@H](CCCNC(=N)N)C(=O)O", "note": "[Peptide 8, NMALQRVREAAEKAKSEL]", "values": [{"measurement": "Direct toxicity", "setting": "[2]", "value": "↑ (*)—"}, {"measurement": "Mortalin-C9 binding", "setting": "mortalin-C9 binding", "value": "—"}, {"measurement": "cell killing effect on primary leukemia cells", "setting": "[4]", "value": "cell killing effect"}]}
